The values below are quoted from earlier work in US9291622B2, “Complement assays and uses thereof” (Apellis Pharmaceuticals, Inc., priority 2009, dated 2016).

[ ]: non-standard residue; d: D form. Trp(5-F) = N[C@@H](Cc1c[nH]c2ccc(F)cc12)C(=O)O; Trp(5-Me) = Cc1ccc2[nH]cc(C[C@H](N)C(=O)O)c2c1; Trp(6-F) = N[C@@H](Cc1c[nH]c2cc(F)ccc12)C(=O)O; Bpa = N[C@@H](Cc1ccc(C(=O)c2ccccc2)cc1)C(=O)O; 1Nal = N[C@@H](Cc1cccc2ccccc12)C(=O)O; 2Nal = N[C@@H](Cc1ccc2ccccc2c1)C(=O)O; Igl = N[C@H](C(=O)O)C1Cc2ccccc2C1; Dht = dihydrotryptophan

The series has as its system complement activation. As to conditions: fold activity relative to compstatin (H-ICVVQDWGHHRCT-CONH2).
With “Ac-ICV(Bpa)QDWGAHRCT-COOH (Ac-ICV[Bpa]QDWGAHRCT-OH; cysteine pairing not given here) [Ac-V4(Bpa)/H9A —OH]”, the Activity over compstatin is 49 × more.
For Ac-ICVYQDWGAHRCT-CONH2 [Ac-V4Y/H9A], the Activity over compstatin was 14 × more.
With Ac-ICVVQDWGHHRCT-CONH2 [Ac-compstatin], the Activity over compstatin is given as 3 × more.
On to “Ac-ICV(5-methyl-W)QDWGAHRCT-CONH2 (Ac-ICV[Trp(5-Me)]QDWGAHRCT-NH2; cysteine pairing not given here) [Ac-V4(5-MeW)/H9A]”, for which the Activity over compstatin was 67 × more.
As to “Ac-ICV(2-Nal)QDWGAHRCT-COOH (Ac-ICV[2Nal]QDWGAHRCT-OH; cysteine pairing not given here) [Ac V4(2-Nal)/H9A —OH]”, the Activity over compstatin was 38 × more.
On to “Ac-ICV(Bpa)QDWGAHRCT-CONH2 (Ac-ICV[Bpa]QDWGAHRCT-NH2; cysteine pairing not given here) [Ac-V4(Bpa)/H9A]”, for which the Activity over compstatin is reported as 86 × more.
For the substance “Ac-ICVWQDWGAHRCT-CONH2 (Ac-ICVWQDWGAHRCT-NH2; cysteine pairing not given here) [Ac-V4W/H9A]”, the Activity over compstatin is 45 × more.
In the case of “H-GICV(6fW)QD(6fW)GAHRCTN-COOH (H-GICV[Trp(6-F)]QD[Trp(6-F)]GAHRCTN-OH; cysteine pairing not given here) [+G/V4(6fW)/W7(6fW)H9A +N —OH]”, the Activity over compstatin is reported as 126 × more.
Regarding “Ac-ICV(2-Nal)QDWGAHRCT-CONH2 (Ac-ICV[2Nal]QDWGAHRCT-NH2; cysteine pairing not given here) [Ac-V4(2-Nal)/H9A]”, the Activity over compstatin is recorded as 99 × more.
On to “Ac-ICV(2-Igl)QDWGAHRCT-CONH2 (Ac-ICV[Igl]QDWGAHRCT-NH2; cysteine pairing not given here) [Ac-V42Igl/H9A]”, for which the Activity over compstatin is recorded as 39 × more.
Take “Ac-ICVWQDWGAHRCdT-COOH [Ac-V4W/H9A/T13dT —OH]”: the Activity over compstatin is on record as 55 × more.
On to “Ac-ICVDhtQDWGAHRCT-COOH (Ac-ICV[Dht]QDWGAHRCT-OH; cysteine pairing not given here) [Ac-V4Dht/H9A —OH]”, for which the Activity over compstatin is listed as 5 × more.
Consider “Ac-ICVWQD(5fW)GAHRCT-CONH2 (Ac-ICVWQD[Trp(5-F)]GAHRCT-NH2; cysteine pairing not given here) [Ac-V4W/W7(5fW)/H9A]”, for which the Activity over compstatin is reported as 121 × more.
“Ac-ICV(2-Igl)QDWGAHRCT-COOH (Ac-ICV[Igl]QDWGAHRCT-OH; cysteine pairing not given here) [Ac-V42Igl/H9A —OH]”: the Activity over compstatin is 37 × more.
Regarding “Ac-ICV(1-Nal)QDWGAHRCT-COOH (Ac-ICV[1Nal]QDWGAHRCT-OH; cysteine pairing not given here) [Ac V4(1-Nal)/H9A —OH]”, the Activity over compstatin is on record as 30 × more.
With “Ac-ICV(5fW)QDWGAHRCT-CONH2 (Ac-ICV[Trp(5-F)]QDWGAHRCT-NH2; cysteine pairing not given here) [Ac-V4(5fW)/H9A]”, the Activity over compstatin was 31 × more.
On to “Ac-ICV(5fW)QD(5fW)GAHRCT-CONH2 (Ac-ICV[Trp(5-F)]QD[Trp(5-F)]GAHRCT-NH2; cysteine pairing not given here) [Ac-V4(5fW)/W7(5fW)/H9A]”, for which the Activity over compstatin is reported as 161 × more.
